Measurements taken from patent publication US6395909B1, “Substituted benzopyran derivatives and their use as anticonvulsants” (priority 1998, dated 2002).

Assays:
[1] = tested on: electrically-induced seizures; assay: Maximal electroshock seizure threshold (MEST) test; assay type: in vivo; settings: rat, intravenous route, solution in 20% PEG, 1 mg/kg, tested 30 min post dosing
Procedure: The maximal electroshock seizure threshold (MEST) test in rodents is particularly sensitive for detecting potential anticonvulsant properties^1. In this model, anticonvulsant agents elevate the threshold to electrically-induced seizures whilst proconvulsants lower the seizure threshold. Rats (naive male, Charles River, U.K. Sprague Dawley strain, 100-150 g) are randomly assigned to groups of 10-20 and dosed orally, intravenously or intraperitoneally at a dose volume of 1 ml/kg with various doses of compound (0.1-300 mg/kg) or vehicle. […] The mean current and standard error required to induce a tonic seizure in 50% (CC50) of the rats in a particular treatment group is determined by the ‘up and down’ method of Dixon and Mood (1948)^2. Statistical comparisons between vehicle- and drug-treated groups are made using the method of Litchfield and Wilcoxon (1949)^3. In control animals the CC50 is usually 20-30 mA. […] If a tonic convulsion does occur, then the current is decreased, and so on until all the animals in the group have been tested. The percentage increase or decrease in CC50 for each group compared to the control is calculated. Studies are carried out using a Hugo Sachs Electronik Constant Current Shock Generator with totally variable control of shock level from 0 to 300 mA and steps of 5-20 mA are usually used. […]

[2] = target: novel receptor obtainable from rat forebrain tissue; assay: Radioligand binding assay, [3H]-Compound A displacement in rat forebrain tissue; settings: competition with [3H]-Compound A (usually 20 nM)
Procedure: WO 92/22293 (SmithKline Beecham) discloses compounds having anti-convulsant activity, including inter alia the compound (3R, 4S)-6-acetyl-(4-fluorobenzoylamino)-3,4-dihydro-2,2-dimethyl-2H-1-benzopyran-3-ol (hereinafter referred to as Compound A). […] The affinity of test compounds to the novel receptor site is assessed as follows.
Whole forebrain tissue is obtained from rats. The tissue is first homogenised in buffer (usually 50 mM Tris/HCl, pH 7.4). The homogenised tissue is washed by centrifugation and resuspension in the same buffer, then stored at −70° C. until used.
To carry out the radioligand binding assay, aliquots of tissue prepared as above (usually at a concentration of 1-2 mg protein/ml) are mixed with aliquots of [3H]-Compound A dissolved in buffer. The final concentration of [3H]-Compound A in the mixture is usually 20 nM. The mixture is incubated at room temperature for 1 hour. [3H]-Compound A bound to the tissue is then separated from unbound [3H]-Compound A by filtration through Whatman GF/B glass fibre filters. The filters are then washed rapidly with ice-cold buffer. The amount of radioactivity bound to the tissue trapped on the filters is measured by addition of liquid scintillation cocktail to the filters followed by counting in a liquid scintillation counter. […]

| SMILES | melting point [°C] | increase in seizure threshold relative to control [1] [%] | pKi value [2] |
| --- | --- | --- | --- |
| CC1(C)Oc2ccc(C(=O)CO)cc2[C@H](NC(=O)c2cc(F)cc(F)c2)[C@H]1O [Example 1, (3R,4S)-4-(3,5-difluorobenzamido)-3,4-dihydro-2,2-dimethyl-3-hydroxy-6-(2-hydroxyacetyl)-2H-1-benzopyran] | 179.4 | 317 | 7.35 |
| CC1(C)Oc2ccc(C(=O)CO)cc2[C@H](NC(=O)c2ccc(F)cc2)[C@H]1O [Example 3, (3R,4S)-4-(4-fluorobenzamido)-3,4-dihydro-2,2-dimethyl-3-hydroxy-6-(2-hydroxyacetyl)-2H-1-benzopyran] | 216 | – | – |
